Results published in PubChem BioAssay (NCI).
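Method: 48-hour compound exposure of cells in 96-well plates, five concentrations, linear interpolation of endpoints. The concentration for full growth arrest is given as TGI.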

Key:
Assay in all cases: growth of human tumour cells (NCI), 48 h
786-0 renal = system: 786-0 renal
A498 renal = system: A498 renal
A549 NSCLC = system: A549 NSCLC
ACHN renal = system: ACHN renal
CAKI-1 renal = system: CAKI-1 renal
CCRF-CEM leukemia = system: CCRF-CEM leukemia
COLO 205 colon = system: COLO 205 colon
DLD-1 colon = system: DLD-1 colon
DMS 114 small cell lung = system: DMS 114 small cell lung
DMS 273 small cell lung = system: DMS 273 small cell lung
EKVX NSCLC = system: EKVX NSCLC
HCC-2998 colon = system: HCC-2998 colon
HCT-116 colon = system: HCT-116 colon
HCT-15 colon = system: HCT-15 colon
HL-60(TB) leukemia = system: HL-60(TB) leukemia
HOP-18 NSCLC = system: HOP-18 NSCLC
HOP-62 NSCLC = system: HOP-62 NSCLC
HOP-92 NSCLC = system: HOP-92 NSCLC
HT29 colon = system: HT29 colon
IGROV1 ovarian = system: IGROV1 ovarian
K-562 leukemia = system: K-562 leukemia
KM12 colon = system: KM12 colon
KM20L2 colon = system: KM20L2 colon
LOX IMVI melanoma = system: LOX IMVI melanoma
LXFL 529 NSCLC = system: LXFL 529 NSCLC
M14 melanoma = system: M14 melanoma
M19-MEL melanoma = system: M19-MEL melanoma
MALME-3M melanoma = system: MALME-3M melanoma
MOLT-4 leukemia = system: MOLT-4 leukemia
NCI-H226 lung = system: NCI-H226 lung
NCI-H23 lung = system: NCI-H23 lung
NCI-H460 lung = system: NCI-H460 lung
NCI-H522 lung = system: NCI-H522 lung
OVCAR-3 ovarian = system: OVCAR-3 ovarian
OVCAR-4 ovarian = system: OVCAR-4 ovarian
OVCAR-5 ovarian = system: OVCAR-5 ovarian
OVCAR-8 ovarian = system: OVCAR-8 ovarian
RXF 393 renal = system: RXF 393 renal
SF-268 CNS = system: SF-268 CNS
SF-295 CNS = system: SF-295 CNS
SF-539 CNS = system: SF-539 CNS
SK-MEL-2 melanoma = system: SK-MEL-2 melanoma
SK-MEL-28 melanoma = system: SK-MEL-28 melanoma
SK-OV-3 ovarian = system: SK-OV-3 ovarian
SN12C renal = system: SN12C renal
SNB-19 CNS = system: SNB-19 CNS
SNB-75 CNS = system: SNB-75 CNS
SR leukemia = system: SR leukemia
SW-620 colon = system: SW-620 colon
TK-10 renal = system: TK-10 renal
U251 CNS = system: U251 CNS
UACC-257 melanoma = system: UACC-257 melanoma
UACC-62 melanoma = system: UACC-62 melanoma
UO-31 renal = system: UO-31 renal
XF 498 CNS = system: XF 498 CNS
RPMI-8226 leukemia = system: RPMI-8226 leukemia
SK-MEL-5 melanoma = system: SK-MEL-5 melanoma
SNB-78 CNS = system: SNB-78 CNS

`CC(C)(C)c1ccc2c(c1)C(O)(c1ccccc1)c1cc(C(C)(C)C)ccc1C2(O)C(F)(F)F` (stereo unspecified) was tested, and the TGI (786-0 renal) was 3.77 µM, the TGI (A498 renal) was 3.25 µM and the TGI (A549 NSCLC) was 3.7 µM. It also gave a TGI (ACHN renal) of 5.77 µM, a TGI (CAKI-1 renal) of 4.73 µM and a TGI (CCRF-CEM leukemia) of 5.57 µM. It also gave a TGI (COLO 205 colon) of 3.27 µM, a TGI (DLD-1 colon) of 4.15 µM and a TGI (DMS 114 small cell lung) of 5.21 µM. For the same compound, the TGI (DMS 273 small cell lung) was 3.55 µM, the TGI (EKVX NSCLC) was 9.85 µM and the TGI (HCC-2998 colon) was 3.66 µM. It also gave a TGI (HCT-116 colon) of 3.37 µM, a TGI (HCT-15 colon) of 3.83 µM and a TGI (HL-60(TB) leukemia) of 5.15 µM. It also gave a TGI (HOP-18 NSCLC) of 5.06 µM, a TGI (HOP-62 NSCLC) of 2.94 µM and a TGI (HOP-92 NSCLC) of 3.79 µM. For the same compound, the TGI (HT29 colon) was 2.99 µM, the TGI (IGROV1 ovarian) was 4.94 µM and the TGI (K-562 leukemia) was 5.62 µM. For the same compound, the TGI (KM12 colon) was 4.87 µM, the TGI (KM20L2 colon) was 3.05 µM and the TGI (LOX IMVI melanoma) was 3.32 µM. The TGI (LXFL 529 NSCLC) was 4.39 µM, the TGI (M14 melanoma) was 3.59 µM and the TGI (M19-MEL melanoma) was 3.7 µM. The TGI (MALME-3M melanoma) was 5.56 µM, the TGI (MOLT-4 leukemia) was 4.71 µM and the TGI (NCI-H226 lung) was 2.35 µM. The TGI (NCI-H23 lung) was 4.39 µM, the TGI (NCI-H460 lung) was 3.5 µM and the TGI (NCI-H522 lung) was 3.45 µM. The TGI (OVCAR-3 ovarian) was 4.29 µM, the TGI (OVCAR-4 ovarian) was 3.7 µM and the TGI (OVCAR-5 ovarian) was 3.05 µM. The TGI (OVCAR-8 ovarian) was 4.29 µM, the TGI (RXF 393 renal) was 3.87 µM and the TGI (SF-268 CNS) was 4.48 µM. It also gave a TGI (SF-295 CNS) of 2.88 µM, a TGI (SF-539 CNS) of 3.41 µM and a TGI (SK-MEL-2 melanoma) of 3.63 µM. The TGI (SK-MEL-28 melanoma) was 4.54 µM, the TGI (SK-OV-3 ovarian) was 8.57 µM and the TGI (SN12C renal) was 3.14 µM. It also gave a TGI (SNB-19 CNS) of 6.32 µM, a TGI (SNB-75 CNS) of 5.48 µM and a TGI (SR leukemia) of 5.12 µM. For the same compound, the TGI (SW-620 colon) was 4.23 µM, the TGI (TK-10 renal) was 11.4 µM and the TGI (U251 CNS) was 3.31 µM. The TGI (UACC-257 melanoma) was 4.85 µM, the TGI (UACC-62 melanoma) was 3.66 µM and the TGI (UO-31 renal) was 4.58 µM. It also gave a TGI (XF 498 CNS) of 2.9 µM.

Compound `O=C(Nc1nc2ncn(CCNCCn3cnc4nc(NC(=O)c5ccccc5)[nH]c(=O)c43)c2c(=O)[nH]1)c1ccccc1` has a TGI (786-0 renal) of over 100 µM, a TGI (A498 renal) of over 100 µM and a TGI (A549 NSCLC) of over 100 µM. For the same compound, the TGI (ACHN renal) was over 100 µM, the TGI (CAKI-1 renal) was over 100 µM and the TGI (CCRF-CEM leukemia) was over 100 µM. The TGI (COLO 205 colon) was over 100 µM, the TGI (DLD-1 colon) was over 100 µM and the TGI (DMS 273 small cell lung) was over 100 µM. It also gave a TGI (EKVX NSCLC) of over 100 µM, a TGI (HCC-2998 colon) of over 100 µM and a TGI (HCT-116 colon) of over 100 µM. For the same compound, the TGI (HCT-15 colon) was over 100 µM, the TGI (HL-60(TB) leukemia) was over 100 µM and the TGI (HOP-18 NSCLC) was over 100 µM. For the same compound, the TGI (HOP-62 NSCLC) was over 100 µM, the TGI (HOP-92 NSCLC) was over 100 µM and the TGI (HT29 colon) was over 100 µM. It also gave a TGI (IGROV1 ovarian) of over 100 µM, a TGI (K-562 leukemia) of over 100 µM and a TGI (KM12 colon) of over 100 µM. It also gave a TGI (KM20L2 colon) of over 100 µM, a TGI (LOX IMVI melanoma) of over 100 µM and a TGI (LXFL 529 NSCLC) of over 100 µM. For the same compound, the TGI (M14 melanoma) was over 100 µM, the TGI (M19-MEL melanoma) was over 100 µM and the TGI (MALME-3M melanoma) was over 100 µM. For the same compound, the TGI (MOLT-4 leukemia) was over 100 µM, the TGI (NCI-H226 lung) was over 100 µM and the TGI (NCI-H23 lung) was over 100 µM. It also gave a TGI (NCI-H460 lung) of over 100 µM, a TGI (NCI-H522 lung) of over 100 µM and a TGI (OVCAR-3 ovarian) of over 100 µM. It also gave a TGI (OVCAR-4 ovarian) of over 100 µM, a TGI (OVCAR-5 ovarian) of over 100 µM and a TGI (OVCAR-8 ovarian) of over 100 µM. For the same compound, the TGI (RPMI-8226 leukemia) was over 100 µM, the TGI (RXF 393 renal) was over 100 µM and the TGI (SF-268 CNS) was over 100 µM. It also gave a TGI (SF-295 CNS) of over 100 µM, a TGI (SF-539 CNS) of over 100 µM and a TGI (SK-MEL-2 melanoma) of over 100 µM. It also gave a TGI (SK-MEL-28 melanoma) of over 100 µM, a TGI (SK-MEL-5 melanoma) of over 100 µM and a TGI (SK-OV-3 ovarian) of over 100 µM. It also gave a TGI (SN12C renal) of over 100 µM, a TGI (SNB-19 CNS) of over 100 µM and a TGI (SNB-75 CNS) of over 100 µM. For the same compound, the TGI (SNB-78 CNS) was over 100 µM, the TGI (SW-620 colon) was over 100 µM and the TGI (TK-10 renal) was over 100 µM. It also gave a TGI (U251 CNS) of over 100 µM, a TGI (UACC-257 melanoma) of over 100 µM and a TGI (UACC-62 melanoma) of over 100 µM. It also gave a TGI (UO-31 renal) of over 100 µM and a TGI (XF 498 CNS) of over 100 µM.
